Reference: PMC7311461, “Cyclophilin D binds to the acidic C-terminus region of α-Synuclein and affects its aggregation characteristics” (Scientific Reports, 2020)
Entries after “also recorded” stand apart in the source; their conditions may differ.

Legend:
αSyn [1] = conditions: cited from earlier work
Description: (§1) Proteins currently known to dissociate amyloid fibrils do so in either an ATP-dependent or –independent manner. Examples of the former include Hsp70, whereas the latter mode can be found in Cyclophilin 40 (Cyp40)[14],[15]. […] The effects of Cyp40 on the tau and αSyn fibrils were attributed to its peptidyl-prolyl isomerase activity. […] An emerging picture is that agents that prevent aggregation can also dissemble amyloid fibrils. […] Human Cyp40 is a multidomain protein consisting of the catalytic isomerase domain followed by four tetratricopeptide repeats. Through mutagenesis, the isomerase domain was identified as being responsible for this disaggregating activity[15] as is also shown here for CypD. CypD also interacts directly with the Alz ...

amyloid-β (Aβ) = conditions: cited from earlier work
Description: as §1

[2] = test system: human insulin and human lysozyme; conditions: cited from earlier work
Description: An emerging picture is that agents that prevent aggregation can also dissemble amyloid fibrils.

αSyn [3] = conditions: cited from earlier work; remark: listed apart in the source
Description: While the aggregation processes are well studied the same is not true for disaggregation. […] EGCG binding to the C-terminus stabilises the αSyn monomeric state and shifts the monomer-fibril equilibrium towards the less aggregated forms. […] Human Cyp40 is a multidomain protein consisting of the catalytic isomerase domain followed by four tetratricopeptide repeats. Through mutagenesis, the isomerase domain was identified as being responsible for this disaggregating activity[15] as is also shown here for CypD. CypD also interacts directly with the Alz ...

tau = conditions: cited from earlier work
Description: Proteins currently known to dissociate amyloid fibrils do so in either an ATP-dependent or –independent manner. Examples of the former include Hsp70, whereas the latter mode can be found in Cyclophilin 40 (Cyp40)[14],[15]. […] The effects of Cyp40 on the tau and αSyn fibrils were attributed to its peptidyl-prolyl isomerase activity.

CypD [4] = target: T1, CypD (Homo sapiens, UniProt P30405); test: Isothermal titration calorimetry, binding to CypD wild-type; conditions: 10°C, 20 mM phosphate, 20 mM NaCl, pH 6.5
T1 construct: His tag (TEV-cleavable, pETM11 vector) (cleaved yes); made in house; host or cells: E. coli BL21 (DE3)
Description: All ITC experiments were carried out at 10°C on an ITC200 Microcalorimeter (GE Healthcare). The buffer used was 20 mM phosphate, 20 mM NaCl at pH 6.5. Each experiment consisted of an initial injection of 0.5 µL, followed by fifteen 2.39 µL injections before a final injection of 1.89 µL. Control experiments were performed whereby each compound was titrated into buffer and buffer titrated into CypD. In both cases no heat exchange was detected, confirming that there was appropriate match of buffer conditions with no indication of dilution effects. The titration experiments were performed in duplicates, with 50-100 µM CypD in the cell and 500-2000 µM peptides in the syringe. For some of the titrations, data from two runs were concatenated to achieve a saturating isotherm. All data was analysed using the Origin®7 (OriginLab, Northampton, MA) software programme.

CypD [5] = target: T1, CypD; test: 1H-15N HSQC NMR of 15N-CypD, binding site identification; conditions: 15N-CypD HSQC, 20-fold excess peptide; 20 mM phosphate, 20 mM NaCl, pH 6.5
Description: NMR spectra were acquired on Bruker Avance III 800 MHz spectrometer equipped with [^1H, ^15N, ^13C]-cryoprobes. […] The same buffer was used for obtaining the ^1H-^15N spectra of ^15N-labelled αSyn at 298 K. Experiments using ^15N-labelled αSyn fibrils were performed at 288 K. ^2H/^15N-labelled CypD was used to make the complex with intact αSyn in order to achieve the optimal conditions to observe shift perturbations, taking into account the size of the complex (~32kD). Backbone ^1H and ^15N resonances of CypD and αSyn were assigned using standard triple resonance to those assigned by ^13C, ^15N, ^1H-triple resonance HNCA, HN(CO)CA, HNCO, HN(CA)CO, CBCA(CO)NH, and CBCANH experiments.
In the analyses of the chemical shift perturbation, the chemical-shift difference was expressed as: Δδ = {(ΔH)^2 + (0.15ΔN)^2}^1/2. Values of Δδ greater than 0.07 were considered significant.

CypD [6] = target: T1, CypD; test: Isomerisation substrate test by NMR; assay type: biochemical
Description: (§2) NMR spectra were acquired on Bruker Avance III 800 MHz spectrometer equipped with [^1H, ^15N, ^13C]-cryoprobes. 1D and 2D spectra of αSyn peptide were performed using 1 mM peptide dissolved in 20 mM phosphate, 20 mM NaCl pH 6.5 at 298 K or 283 K. Resonance assignments of the proton spectra of αSyn peptide were obtained using ^1H-^1H 2D TOCSY (mixing time 60 ms) and NOESY spectra (mixing time 350 ms). […] The same buffer was used for obtaining the ^1H-^15N spectra of ^15N-labelled αSyn at 298 K. Experiments using ^15N-labelled αSyn fibrils were performed at 288 K. ^2H/^15N-labelled CypD was used to make the complex with intact αSyn in order to achieve the optimal conditions to observe shift perturbations, taking into account the size of the complex (~32kD). Backbone ^1H and ^15N resonances of CypD and αSyn were assigned using standard triple resonance to those assigned by ^13C, ^15N, ^1H-triple resonance HNCA, HN(CO)CA, HNCO, HN(CA)CO, CBCA(CO)NH, and CBCANH experiments.

[7] = test system: αSyn effects on mitochondria / MPTP; conditions: cited from earlier work
Description: Cyclophilin D (CypD) is a mitochondrial peptidyl-prolyl isomerase that has been implicated to be involved in the mechanisms of many diseases, although it is best known as a regulator for the opening of the mitochondria permeability transition pore (MPTP). […] Co-immunoprecipitation experiments ...

[8] = test system: αSynC peptide (cis-trans isomerisation by CypD); test: NMR detection of αSynC cis-trans isomerisation (1D line-broadening, 2D NOESY exchange cross-peaks); assay type: biochemical; conditions: αSynC 1 mM, CypD 50uM, CsA 100uM, 283 K
Description: as §2

T1 sequence (P30405 43-207): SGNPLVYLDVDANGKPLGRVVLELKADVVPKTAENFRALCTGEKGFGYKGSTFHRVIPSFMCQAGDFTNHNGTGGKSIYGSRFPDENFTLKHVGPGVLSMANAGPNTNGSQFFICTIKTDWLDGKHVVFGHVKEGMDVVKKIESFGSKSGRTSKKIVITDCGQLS

C=CC[C@@H]1/C=C(\C)C[C@H](C)C[C@H](OC)[C@H]2O[C@@](O)(C(=O)C(=O)N3CCCC[C@H]3C(=O)O[C@H](/C(C)=C/[C@@H]3CC[C@@H](O)[C@H](OC)C3)[C@H](C)[C@@H](O)CC1=O)[C@H](C)C[C@@H]2OC [FK506]
αSyn aggregation (FKBP inhibitor) (αSyn [1]): prevent αSyn aggregation

CC12CC3CC(C)(C1)CC(N)(C3)C2 [memantine]
Aβ aggregation and preformed Aβ fibrils (amyloid-β (Aβ)): inhibits Αβ aggregation; also recorded: disassembles preformed Aβ fibrils

CC(CN1c2ccccc2Sc2ccccc21)N(C)C (centres unmarked) [promethazine]
aggregation of human insulin and human lysozyme [2]: prevents the aggregation of human insulin and human lysozyme; also recorded: depolymerises preformed fibrils

Cyclophilin A: Cyclophilin A
binding to αSyn (αSyn [3]): bind to αSyn, also at the C-terminus as well as to the preNAC sequence

Cyp40: cytosolic peptidyl prolyl isomerase, co-chaperone to Hsp90
dissociation of fibrils (tau): dissociate tau | dissociation of fibrils (αSyn [1]; αSyn fibrils): dissociate tau, and αSyn | dissociation of fibrils (amyloid-β (Aβ); Aβ fibrils): not amyloid-β (Aβ) fibrils

FKBP12: peptidyl-prolyl isomerase immunophilin protein belonging to the FKBP family, cytoplasmic
αSyn aggregation (αSyn [1]): promoted αSyn aggregation | binding to αSyn (αSyn [3]): shown to bind αSyn

GVATVAEKTKEQVTN [αSynM, synthetic peptide 51–65 of αSyn, >98% pure]
binding to CypD (ITC, in words) (CypD [4]): too weak to yield a reliable binding isotherm; also recorded: binds much more weakly | binding to CypD by NMR (in words) (CypD [5]): only slightly shifted from the positions in the free protein with minimal broadening observed for selected peaks; also recorded: very weak binding | interaction with CypD / isomerisation substrate (CypD [6]): not an isomerisation substrate of CypD

cyclosporine A [CsA]
rescue of αSyn effects on mitochondria [7]: can be rescued | effect of CsA on exchange cross-peaks (CypD isomerase activity) [8]: exchange crosspeaks disappear | effect of CsA on exchange cross-peaks (CypD isomerase activity) ([8]; listed as Cyclosporine A): disappearance of the exchange cross-peaks

epigallocatechin-3-gallate [EGCG]
dissociation of αSyn aggregates (αSyn [1]): dissociates αSyn aggregates | binding to C-terminus of monomeric αSyn (αSyn [3]): binds to the C-terminus of monomeric αSyn
